Measured values as given in US10004711B2, “Methods and compositions comprising 10-hydroxy-2-decenoic acid” (DSM IP ASSETS B.V., priority 2014, dated 2018).

Key:
[1] = Body weight of aged male rats fed QBA (Example 7); assay type: in vivo, rat
Procedure: Aged male rats were fed 10-Hydroxy-2-decenoic acid (QBA) for approximately 7 months from 11-months to 18-months of age and the weight of rats was recorded.

[2] = system: Adult female Long-Evans rats; test: Ovulatory cycle status of female rats with abnormal ovulatory cycles; assay type: in vivo, rat; conditions: six weeks, count of animals
Excerpt: Adult female Long-Evans rats (3 months-old) with abnormal ovulatory cycles were fed diets containing 10-Hydroxy-2-decenoic acid (QBA) or no QBA for six (6) weeks. Female rats having normal ovulatory cycle were used as positive controls and were not fed QBA.

Compound: O=C(O)C=CCCCCCCCO [QBA, 10-Hydroxy-2-decenoic acid]
- Avg Wt ([1]; QBA 0.4 mg/kg/day, study day 0): 509.6 g
- Avg Wt ([1]; QBA 0.4 mg/kg/day, study day 7): 516.1 g
- Avg Wt ([1]; QBA 0.4 mg/kg/day, study day 21): 524.4 g
- Avg Wt ([1]; QBA 0.4 mg/kg/day, study day 29): 508.6 g
- Avg Wt ([1]; QBA 0.4 mg/kg/day, study day 36): 523.1 g
- Avg Wt ([1]; QBA 0.4 mg/kg/day, study day 50): 554.6 g
- Avg Wt ([1]; QBA 0.4 mg/kg/day, study day 57): 559.5 g
- Avg Wt ([1]; QBA 0.4 mg/kg/day, study day 64): 566.7 g
- Avg Wt ([1]; QBA 0.4 mg/kg/day, study day 71): 568.6 g
- Avg Wt ([1]; QBA 0.4 mg/kg/day, study day 78): 570.3 g
- Avg Wt ([1]; QBA 0.4 mg/kg/day, study day 85): 577.3 g
- Avg Wt ([1]; QBA 0.4 mg/kg/day, study day 92): 581.3 g
- Avg Wt ([1]; QBA 0.4 mg/kg/day, study day 99): 583.8 g
- Avg Wt ([1]; QBA 0.4 mg/kg/day, study day 106): 592.7 g
- Avg Wt ([1]; QBA 0.4 mg/kg/day, study day 113): 593.2 g
- Avg Wt ([1]; QBA 0.4 mg/kg/day, study day 120): 596.8 g
- Avg Wt ([1]; QBA 0.4 mg/kg/day, study day 127): 590.7 g
- Avg Wt ([1]; QBA 0.4 mg/kg/day, study day 141): 589.8 g
- Avg Wt ([1]; QBA 0.4 mg/kg/day, study day 148): 578.0 g
- Avg Wt ([1]; QBA 0.4 mg/kg/day, study day 155): 585.4 g
- Avg Wt ([1]; QBA 0.4 mg/kg/day, study day 162): 593.6 g
- Avg Wt ([1]; QBA 0.4 mg/kg/day, study day 169): 601.7 g
- Avg Wt ([1]; QBA 0.4 mg/kg/day, study day 176): 573.6 g
- Avg Wt ([1]; QBA 0.4 mg/kg/day, study day 182): 588.7 g
- Avg Wt ([1]; QBA 0.4 mg/kg/day, study day 190): 584.1 g
- Avg Wt ([1]; QBA 0.4 mg/kg/day, study day 197): 582.6 g
- Avg Wt ([1]; QBA 0.4 mg/kg/day, study day 204): 580.1 g
- Avg Wt ([1]; QBA 0.4 mg/kg/day, study day 211): 575.8 g
- Avg Wt ([1]; QBA 0.4 mg/kg/day, study day 217): 582.6 g
- Avg Wt ([1]; QBA 4 mg/kg/day, study day 0): 509.8 g
- Avg Wt ([1]; QBA 4 mg/kg/day, study day 7): 518.9 g
- Avg Wt ([1]; QBA 4 mg/kg/day, study day 21): 527.4 g
- Avg Wt ([1]; QBA 4 mg/kg/day, study day 29): 511.6 g
- Avg Wt ([1]; QBA 4 mg/kg/day, study day 36): 526.8 g
- Avg Wt ([1]; QBA 4 mg/kg/day, study day 50): 567.3 g
- Avg Wt ([1]; QBA 4 mg/kg/day, study day 57): 571.0 g
- Avg Wt ([1]; QBA 4 mg/kg/day, study day 64): 576.4 g
- Avg Wt ([1]; QBA 4 mg/kg/day, study day 71): 576.2 g
- Avg Wt ([1]; QBA 4 mg/kg/day, study day 78): 584.8 g
- Avg Wt ([1]; QBA 4 mg/kg/day, study day 85): 587.5 g
- Avg Wt ([1]; QBA 4 mg/kg/day, study day 92): 584.3 g
- Avg Wt ([1]; QBA 4 mg/kg/day, study day 99): 595.4 g
- Avg Wt ([1]; QBA 4 mg/kg/day, study day 106): 592.5 g
- Avg Wt ([1]; QBA 4 mg/kg/day, study day 113): 594.7 g
- Avg Wt ([1]; QBA 4 mg/kg/day, study day 120): 592.2 g
- Avg Wt ([1]; QBA 4 mg/kg/day, study day 127): 592.4 g
- Avg Wt ([1]; QBA 4 mg/kg/day, study day 141): 593.1 g
- Avg Wt ([1]; QBA 4 mg/kg/day, study day 148): 588.0 g
- Avg Wt ([1]; QBA 4 mg/kg/day, study day 155): 587.8 g
- Avg Wt ([1]; QBA 4 mg/kg/day, study day 162): 589.5 g
- Avg Wt ([1]; QBA 4 mg/kg/day, study day 169): 594.0 g
- Avg Wt ([1]; QBA 4 mg/kg/day, study day 176): 601.7 g
- Avg Wt ([1]; QBA 4 mg/kg/day, study day 182): 588.0 g
- Avg Wt ([1]; QBA 4 mg/kg/day, study day 190): 597.8 g
- Avg Wt ([1]; QBA 4 mg/kg/day, study day 197): 597.7 g
- Avg Wt ([1]; QBA 4 mg/kg/day, study day 204): 601.8 g
- Avg Wt ([1]; QBA 4 mg/kg/day, study day 211): 596.6 g
- Avg Wt ([1]; QBA 4 mg/kg/day, study day 217): 595.9 g
- Avg Wt ([1]; QBA 12 mg/kg/day, study day 0): 508.7 g
- Avg Wt ([1]; QBA 12 mg/kg/day, study day 7): 508.8 g
- Avg Wt ([1]; QBA 12 mg/kg/day, study day 21): 508.0 g
- Avg Wt ([1]; QBA 12 mg/kg/day, study day 29): 490.2 g
- Avg Wt ([1]; QBA 12 mg/kg/day, study day 36): 511.7 g
- Avg Wt ([1]; QBA 12 mg/kg/day, study day 50): 554.3 g
- Avg Wt ([1]; QBA 12 mg/kg/day, study day 57): 551.4 g
- Avg Wt ([1]; QBA 12 mg/kg/day, study day 64): 567.6 g
- Avg Wt ([1]; QBA 12 mg/kg/day, study day 71): 574.1 g
- Avg Wt ([1]; QBA 12 mg/kg/day, study day 78): 573.1 g
- Avg Wt ([1]; QBA 12 mg/kg/day, study day 85): 574.6 g
- Avg Wt ([1]; QBA 12 mg/kg/day, study day 92): 581.2 g
- Avg Wt ([1]; QBA 12 mg/kg/day, study day 99): 584.5 g
- Avg Wt ([1]; QBA 12 mg/kg/day, study day 106): 591.2 g
- Avg Wt ([1]; QBA 12 mg/kg/day, study day 113): 591.2 g
- Avg Wt ([1]; QBA 12 mg/kg/day, study day 120): 586.1 g
- Avg Wt ([1]; QBA 12 mg/kg/day, study day 127): 593.3 g
- Avg Wt ([1]; QBA 12 mg/kg/day, study day 141): 595.8 g
- Avg Wt ([1]; QBA 12 mg/kg/day, study day 148): 592.9 g
- Avg Wt ([1]; QBA 12 mg/kg/day, study day 155): 591.1 g
- Avg Wt ([1]; QBA 12 mg/kg/day, study day 162): 580.5 g
- Avg Wt ([1]; QBA 12 mg/kg/day, study day 169): 588.2 g
- Avg Wt ([1]; QBA 12 mg/kg/day, study day 176): 593.0 g
- Avg Wt ([1]; QBA 12 mg/kg/day, study day 182): 590.6 g
- Avg Wt ([1]; QBA 12 mg/kg/day, study day 190): 599.5 g
- Avg Wt ([1]; QBA 12 mg/kg/day, study day 197): 600.8 g
- Avg Wt ([1]; QBA 12 mg/kg/day, study day 204): 595.5 g
- Avg Wt ([1]; QBA 12 mg/kg/day, study day 211): 599.6 g
- Avg Wt ([1]; QBA 12 mg/kg/day, study day 217): 593.7 g
- Avg Wt ([1]; QBA 24 mg/kg/day, study day 0): 516.8 g
- Avg Wt ([1]; QBA 24 mg/kg/day, study day 7): 510.9 g
- Avg Wt ([1]; QBA 24 mg/kg/day, study day 21): 530.8 g
- Avg Wt ([1]; QBA 24 mg/kg/day, study day 29): 512.3 g
- Avg Wt ([1]; QBA 24 mg/kg/day, study day 36): 546.4 g
- Avg Wt ([1]; QBA 24 mg/kg/day, study day 50): 574.6 g
- Avg Wt ([1]; QBA 24 mg/kg/day, study day 57): 586.8 g
- Avg Wt ([1]; QBA 24 mg/kg/day, study day 64): 594.2 g
- Avg Wt ([1]; QBA 24 mg/kg/day, study day 71): 598.5 g
- Avg Wt ([1]; QBA 24 mg/kg/day, study day 78): 600.7 g
- Avg Wt ([1]; QBA 24 mg/kg/day, study day 85): 608.8 g
- Avg Wt ([1]; QBA 24 mg/kg/day, study day 92): 614.9 g
- Avg Wt ([1]; QBA 24 mg/kg/day, study day 99): 618.1 g
- Avg Wt ([1]; QBA 24 mg/kg/day, study day 106): 626.7 g
- Avg Wt ([1]; QBA 24 mg/kg/day, study day 113): 628.4 g
- Avg Wt ([1]; QBA 24 mg/kg/day, study day 120): 628.6 g
- Avg Wt ([1]; QBA 24 mg/kg/day, study day 127): 630.3 g
- Avg Wt ([1]; QBA 24 mg/kg/day, study day 141): 632.0 g
- Avg Wt ([1]; QBA 24 mg/kg/day, study day 148): 635.4 g
- Avg Wt ([1]; QBA 24 mg/kg/day, study day 155): 636.3 g
- Avg Wt ([1]; QBA 24 mg/kg/day, study day 162): 637.3 g
- Avg Wt ([1]; QBA 24 mg/kg/day, study day 169): 628.4 g
- Avg Wt ([1]; QBA 24 mg/kg/day, study day 176): 643.9 g
- Avg Wt ([1]; QBA 24 mg/kg/day, study day 182): 646.0 g
- Avg Wt ([1]; QBA 24 mg/kg/day, study day 190): 649.5 g
- Avg Wt ([1]; QBA 24 mg/kg/day, study day 197): 653.3 g
- Avg Wt ([1]; QBA 24 mg/kg/day, study day 204): 644.4 g
- Avg Wt ([1]; QBA 24 mg/kg/day, study day 211): 647.8 g
- Avg Wt ([1]; QBA 24 mg/kg/day, study day 217): 650.6 g
- body weight versus control, repeated measures ANOVA ([1]; all doses versus 0 mg/kg/day QBA): small but significant increase
- body weight maintenance in aging male rats ([1]; summary of Table 13): helped to maintain healthy body weight
- Ovulatory Cycle Status Abnormal ([2]; QBA 0.4 mg/kg/day): 7
- Ovulatory Cycle Status Normal ([2]; QBA 0.4 mg/kg/day): 8
- Ovulatory Cycle Status Abnormal ([2]; QBA 4 mg/kg/day): 9
- Ovulatory Cycle Status Normal ([2]; QBA 4 mg/kg/day): 6
- Ovulatory Cycle Status Abnormal ([2]; QBA 12 mg/kg/day): 4
- Ovulatory Cycle Status Normal ([2]; QBA 12 mg/kg/day): 11
- Ovulatory Cycle Status Abnormal ([2]; QBA 24 mg/kg/day): 12
- Ovulatory Cycle Status Normal ([2]; QBA 24 mg/kg/day): 3
